SMILES strings stand for the structures. pIC50: −log10 of the molar value.

Results on four compounds are retold here after ChEMBL document CHEMBL3259638, “Preliminary investigations into triazole derived androgen receptor antagonists” (Bioorg Med Chem, 2014).

One data set relates to PC-3. Description: Cytotoxicity against human PC3 cells assessed growth inhibition. Type of data set: functional, cell-based.
The next data set relates to LNCaP. Briefly: Cytotoxicity against human LNCAP cells. Type of data set: cell-based.

One may read the pIC50 as the IC50 on a negative log10 scale, so that one unit is a factor of ten. The low end stands for a large IC50, the high end for a small IC50. On to `CC(C)(O)c1cn(-c2ccc(Cl)c(C(F)(F)F)c2)nn1`, for which the pIC50 in the data set on PC-3 was 4.16.

Consider `CC(C)(O)c1cn(-c2ccc(C#N)c(C(F)(F)F)c2)nn1`, for which the Activity entry with LNCaP is given as “Toxic”.

`CC(C)(O)c1cn(-c2ccc([N+](=O)[O-])c(C(F)(F)F)c2)nn1` showed a pIC50 in the data set on PC-3 of 4.20.

Compound `CC(C)(O)c1cn(-c2cc(C(F)(F)F)cc(C(F)(F)F)c2)nn1` showed a pIC50 with PC-3 of 4.38.
